Columns and labels:
[1] = system: TH+ terminals in the striatum; assay: Fluid percussion injury (mild TBI), tyrosine hydroxylase (TH) immunoreactivity in striatum; assay type: in vivo, rats
Protocol: Rats were subjected to fluid percussion injury (FPI) or sham operation to one side of the brain using the same procedures described in Griesbach et al (Brain Research, 1288: 105-115,2009, PMCID:PMC2735616) and Hutson et al (J. Neurotrauma, Jun. 6, 2011; PMID:21644813). […] About 5 to 30 minutes after FPI or sham operation, the rats were administered with saline or posiphen tartrate at a dose of 2.5, 5 or 10 mg/kg body weight intraperitoneally and also daily for the next 28 to 32 days. At 90 minutes after the last saline or posiphen treatment, all the rats were sacrificed and sections of the brain of each of the rats were stained for tyrosine hydroxylase (TH), wherein TH stains only live cells. The amounts of TH immunoreactivity in the whole striatum of the brain slices were measured, Stereological analysis of dopaminergic (DA) neurons in the substantia nigra was conducted to determine whether posiphen would block the TBI-induced loss of DA neurons ipsilateral and contralateral to the FPI injury, using procedures described in Johnson et al (Brain Pathol. Jun. 29, 2011, doi: 10.1111/j.1750-3639.2011.00513.x) and Hoshino et al (Neurol. Med. Chir. (Tokyo), 2003 April; 43 (4): 165-74). The groups of rats included the rats with LOC above/at the median value. In FIG. 2, the sham operated group was compared with the vehicle group with two-way ANOVA, Bonferroni comparisons, wherein *p<0.05. In FIG. 3, the vehicle group was compared with the posiphen-treatment groups with one-way ANOVA, Bonferroni comparisons, wherein ^#p<0.05.

retinal neurons = assay: Retinal ischemia-reperfusion (IR), Cell Death ELISA of retina; assay type: in vivo, Sprague-Dawley rats; details: posiphen tartrate 30 mg/kg oral gavage once per day
Text: IR is a well-established experimental model of glaucoma as well as neuronal cell death in other retinal diseases. IR was induced on one eye of each rat while the opposite eye served as an internal control. Transient IR was induced by raising the intraocular pressure by a controlled micro-injection of saline into the anterior chamber of the eye. This approach is well established to induce large amounts of apoptotic cell death in the retina, beginning within hours after the reperfusion and continuing for several days, leading to a loss of about 50% of the retina. There would also be a dramatic and persistent increase in the permeability of the vasculature of the inner retina during this period, which may lead to edema.
Adult male Sprague-Dawley rats (approx. 450 g, n=8) were housed under normal 12 hr light/dark conditions with free access to food and water. Rats were given posiphen tartrate (30 mg/kg body weight, delivered in 15 mg/ml water) or an equivalent volume of water (vehicle) by oral gavage once per day. Gavage was performed daily over three days and then on the fourth day IR was induced in anesthetized rats (ketamine:xylazine, 100:10 mg/kg, i.p.). […] The retinas were homogenized and fractionated to obtain a cytoplasmic sample which was assessed for nucleosome content in duplicate, using the Cell Death ELISA (Roche). Data were averaged and expressed as optical density (OD). […]

[2] = system: rats subjected to mild traumatic brain injury; assay: Working memory test in Morris water maze after fluid percussion injury; assay type: in vivo
Protocol: The vehicle or posiphen tartrate treated rats from Example 2 were also subjected to working memory test in Morris water maze. Each of the rats was individually tested in the Morris water maze, which had 4 release points for putting the rat into the water and 4 platforms for the rat to swim to. For a total of 3 consecutive days (on one and two days before the last vehicle or posiphen treatment, and also on the day of the last vehicle or posiphen treatment before euthanasia), the rats were tested on their ability to find the 4 platform positions, using paired trials (4 paired trials per day). In each pair of the trials, the first trial was the learning trial, for the rat to learn the position of a platform, and the second trial was the memory trial for testing the memory of the rat to swim to the platform that the rat learned in the learning trial. In the learning trial, each of the rats was allowed a maximum swim time of 90 seconds to swim to the platform, and guided to the platform if needed after 90 seconds. The memory trial was started 5 seconds after the completion of the learning trial and the time for the rat to reach the platform by swimming in the maze in the memory trial was recorded. The 4 platform positions were switched after every pair of trials. The time interval between the learning trials of two consecutive pairs of trials in a day was 5 minutes. […]

[3] = system: IBA-1+ microglia cells in the substantia nigra; assay: Fluid percussion injury, microglial activation by diameter of IBA-1-positive cells in substantia nigra; assay type: in vivo, rats; details: 10 mg/kg
Protocol: Because FPI can induce microglial activation according to Hutson et al (J. Neurotrauma, Jun. 6, 2011; PMID:21644813), whether posiphen would reverse this pathological response using quantitative measures was tested in the vehicle or posiphen tartrate treated (10 mg/kg) rats from Example 2 (part of the brain from each of the euthanized rat was stained for tyrosine hydroxylase in Example 2 and another part of the brain was stained for microglia in Example 3). Microglial activation was assessed by quantitative measure of the diameter of IBA-1-positive cells, wherein IBA-1 stands for ionized calcium adaptor binding protein.
Analysis was done on a Leica DM-LB microscope with a Ludl XYZ motorized stage and z-axis microcator (MT12, Heidenheim, Traunreut, Germany) using StereoInvestigator software
(MicroBrightField, Colchester, VT). A contour was drawn to delineate the substantia nigra under the 5× objective lens to ensure anatomical accuracy. Following delineation, the diameters of microglial cell bodies were measured in the first counting frame (100 μm) and then in every fifth counting frame at 40× magnification. This sampling frequency was chosen in order to count approximately 30-50 IBA-1+ cells in each side of the substantia nigra. The first counting frame was always positioned in the upper left corner of the contour and systematically moved from left to right and from top to bottom until the entire delineated contour region was sampled. The number of IBA-1+ microglia cells with cell diameters ranging from 1 μm to 14 μm was then normalized to the total number counted in each section and expressed as a percentage of total microglia. The results are shown in FIG. 4 (wherein the percent of IBA-1+ cells was plotted on the vertical axis, and the microglial cell diameter in um was plotted on the horizontal axis). In FIG. 4, the blank portion of each data bar represents the mean % of IB A-1+ cells with the solid or striped portion at the top of the bar representing the 95% confidence interval. In each pair of data bars in FIG. 4, the bar on the left having a solid portion at the top represents data from the vehicle-treated group, while the bar on the right having a striped portion at the top represents data from the 10 mg/kg posiphen-treated group, wherein the data of the posiphen-treated group (the bar on the right) were compared with the data of the vehicle-treated group (the bar on the left) with Bootstrapping method. The asterisks (*) at the top of some of the bars of the 10 mg/kg posiphen-treated group indicate statistical significance at p<0.05 when compared with the data of the corresponding bar of the vehicle-treated group as analyzed with the Bootstrapping method. Posiphen increased the number of resting microglia and reduced the number of activated microglia.

SMILES: CN1CC[C@]2(C)c3cc(OC(=O)Nc4ccccc4)ccc3N(C)C12 (stereo partly drawn) [posiphen, (3aR)-1,3a,8-trimethyl-1,2,3,3a,8,8a-hexahydropyrrolo[2,3-b]indol-5-yl phenylcarbamate]
- number of surviving cells in the ipsilateral area of the brain (striatum) ([1]; 2.5, 5 and 10 mg/kg i.p. daily for 28 to 32 days, all 3 doses): statistically significant increase
- TH+ fluorescence intensity versus vehicle-treated group ([1]; all posiphen-treated groups (2.5, 5, 10 mg/kg), one-way ANOVA, p<0.05): significantly higher
- number of nerve cells of the striatum in the contralateral part of the brain ([1]; highest dose of 10 mg/kg i.p. daily): an increase
- protection of the TH+ cells in ipsilateral striatum (whole, rostral, medial and caudal) ([1]; posiphen treated animals, ipsilateral side): full protection
- FPI-induced decrease in the TH+ terminals in the striatum ([1]; rat, in vivo): attenuated
- number of dead nerve cells in retina of IR eye (IR-Pos) versus opposite eye (control-Pos) (retinal neurons): only slightly more
- retinal neurons rescued (retinal neurons; eye subjected to transient IR (IR-Pos), N=6): 72%
- latency to find the platform versus vehicle-treated group ([2]; 2.5 mg/kg and 5 mg/kg, p=0.0961): non-significant trend toward a reduction
- latency to reach the platform in memory trials versus vehicle-treated group ([2]; 10 mg/kg, p=0.0335): amelioration of this deficit
- brain inflammation after traumatic brain injury [3]: decreased
- FPI-increased microglia activation in the substantia nigra ipsilateral to the injury ([3]; statistically significant): attenuated
- number of activated microglia ([3]; versus vehicle-treated group): reduced
- number of resting microglia ([3]; versus vehicle-treated group): increased

Reference: patent publication US20250000846A1, “METHODS OF TREATMENT OR PREVENTION OF ACUTE BRAIN OR NERVE INJURIES” (Annovis Bio, Inc., priority 2015, published 2025)
